# Experimental data published in patent US9771369B2, “Compounds and methods for kinase modulation, and indications therefor” (Plexxikon Inc., priority 2014, dated 2017).
# Target: c-Kit kinase (Homo sapiens (Human), UniProt P10721)
# Assay: c-Kit biochemical assay (AlphaScreen kinase activity)
# In short: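 AlphaScreen: c-Kit phosphorylates biotin-(E4Y)3 (100 nM) at 10 μM ATP, pH 7.2 HEPES buffer with Mg/Mn, 5% DMSO, 1 h room temperature; streptavidin donor and PY30 acceptor beads detect product. Second format: 100 μM ATP, 30 nM biotin-(E4Y)10, pH 7.5. IC50 from 8-point 1:3 dilution curves.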
# Sequence of c-Kit kinase (P10721 26-976): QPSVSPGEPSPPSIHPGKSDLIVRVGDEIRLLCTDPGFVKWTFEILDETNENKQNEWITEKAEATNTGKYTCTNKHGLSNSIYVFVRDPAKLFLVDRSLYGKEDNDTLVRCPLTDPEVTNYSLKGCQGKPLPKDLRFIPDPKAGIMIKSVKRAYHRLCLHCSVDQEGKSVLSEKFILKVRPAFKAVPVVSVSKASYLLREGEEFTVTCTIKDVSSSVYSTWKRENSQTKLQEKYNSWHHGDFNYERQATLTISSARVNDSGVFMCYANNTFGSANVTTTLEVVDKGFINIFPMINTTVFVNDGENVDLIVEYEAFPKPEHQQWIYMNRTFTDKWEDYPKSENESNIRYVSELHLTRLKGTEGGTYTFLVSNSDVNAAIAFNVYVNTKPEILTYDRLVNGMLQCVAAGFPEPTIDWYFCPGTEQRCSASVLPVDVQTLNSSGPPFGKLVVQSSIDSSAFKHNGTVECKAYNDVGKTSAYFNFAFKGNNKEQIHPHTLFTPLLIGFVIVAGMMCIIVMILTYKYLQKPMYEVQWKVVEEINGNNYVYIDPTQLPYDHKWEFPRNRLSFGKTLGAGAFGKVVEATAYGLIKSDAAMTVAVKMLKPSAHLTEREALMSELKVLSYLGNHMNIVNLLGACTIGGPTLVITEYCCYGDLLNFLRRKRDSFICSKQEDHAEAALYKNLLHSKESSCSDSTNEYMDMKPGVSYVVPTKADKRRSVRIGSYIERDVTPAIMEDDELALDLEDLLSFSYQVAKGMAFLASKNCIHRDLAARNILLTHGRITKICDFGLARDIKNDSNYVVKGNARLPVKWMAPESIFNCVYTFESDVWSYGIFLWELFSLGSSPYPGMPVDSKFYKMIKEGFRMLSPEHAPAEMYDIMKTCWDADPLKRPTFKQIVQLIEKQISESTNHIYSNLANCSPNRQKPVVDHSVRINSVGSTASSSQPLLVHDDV
row,Structure (SMILES),IC50 [µM]
1,"Cc1nc(C2CCN(c3ncnc4[nH]c(-c5cccc(S(N)(=O)=O)c5)cc34)CC2)[nH]c1-c1ccccc1 [P-3051, 3-[4-[4-(4-methyl-5-phenyl-1H-imidazol-2-yl)-1-piperidyl]-7H-pyrrolo[2,3-d]pyrimidin-6-yl]benzenesulfonamide]",0.0001 to 1
2,"COc1ccc(-c2[nH]c(C3(C)CCN(c4ncnc5[nH]c(-c6ccc(F)cc6)cc45)CC3)nc2C)cc1C [P-3052, 6-(4-fluorophenyl)-4-[4-[5-(4-methoxy-3-methyl-phenyl)-4-methyl-1H-imidazol-2-yl]-4-methyl-1-piperidyl]-7H-pyrrolo[2,3-d]pyrimidine]",0.0001 to 1
3,"COc1ccc(-c2[nH]c(C3(C)CCN(c4ncnc5[nH]c(-c6ccc(C#N)cc6)cc45)CC3)nc2C)cc1C [P-3053, 4-[4-[4-[5-(4-methoxy-3-methyl-phenyl)-4-methyl-1H-imidazol-2-yl]-4-methyl-1-piperidyl]-7H-pyrrolo[2,3-d]pyrimidin-6-yl]benzonitrile]",0.0001 to 1
4,"COc1cc(-c2cc3c(N4CCC(C)(c5nc(C)c(-c6ccc(OC)c(C)c6)[nH]5)CC4)ncnc3[nH]2)ccn1 [P-3054, 4-[4-[5-(4-methoxy-3-methyl-phenyl)-4-methyl-1H-imidazol-2-yl]-4-methyl-1-piperidyl]-6-(2-methoxy-4-pyridyl)-7H-pyrrolo[2,3-d]pyrimidine]",0.0001 to 1
5,"CCC1(c2nc(C)c(-c3ccc(OC)cc3)[nH]2)CCN(c2ncnc3[nH]c(-c4ccc(F)cc4)cc23)CC1 [P-3055, 4-[4-ethyl-4-[5-(4-methoxyphenyl)-4-methyl-1H-imidazol-2-yl]-1-piperidyl]-6-(4-fluorophenyl)-7H-pyrrolo[2,3-d]pyrimidine]",0.0001 to 1
6,"CCC1(c2nc(C)c(-c3ccc(OC)c(C)c3)[nH]2)CCN(c2ncnc3[nH]c(-c4ccc(F)cc4)cc23)CC1 [P-3056, 4-[4-ethyl-4-[5-(4-methoxy-3-methyl-phenyl)-4-methyl-1H-imidazol-2-yl]-1-piperidyl]-6-(4-fluorophenyl)-7H-pyrrolo[2,3-d]pyrimidine]",0.0001 to 1
7,"Cc1nc(C2(C)CCN(c3ncnc4[nH]c(-c5ccc(F)cc5)cc34)CC2)[nH]c1-c1ccc(F)cc1 [P-3057, 6-(4-fluorophenyl)-4-[4-[5-(4-fluorophenyl)-4-methyl-1H-imidazol-2-yl]-4-methyl-1-piperidyl]-7H-pyrrolo[2,3-d]pyrimidine]",0.0001 to 1
8,"Cc1nc(C2(C)CCN(c3ncnc4[nH]c(-c5ccc(F)cc5)cc34)CC2)[nH]c1-c1ccc(Cl)cc1 [P-3058, 4-[4-[5-(4-chlorophenyl)-4-methyl-1H-imidazol-2-yl]-4-methyl-1-piperidyl]-6-(4-fluorophenyl)-7H-pyrrolo[2,3-d]pyrimidine]",0.0001 to 1
9,"CCc1ccc(-c2[nH]c(C3CCN(c4ncnc5[nH]c(-c6ccnc(OC)c6)cc45)CC3)nc2C)cc1 [P-3059, 4-[4-[5-(4-ethylphenyl)-4-methyl-1H-imidazol-2-yl]-1-piperidyl]-6-(2-methoxy-4-pyridyl)-7H-pyrrolo[2,3-d]pyrimidine]",0.0001 to 1
10,"CCc1ccc(-c2[nH]c(C3CCN(c4ncnc5[nH]c(-c6ccc(F)cc6)cc45)CC3)nc2C)cc1 [P-3060, 4-[4-[5-(4-ethylphenyl)-4-methyl-1H-imidazol-2-yl]-1-piperidyl]-6-(4-fluorophenyl)-7H-pyrrolo[2,3-d]pyrimidine]",0.0001 to 1
11,"CCc1ccc(-c2[nH]c(C3CCN(c4ncnc5[nH]c(-c6ccc(C#N)cc6)cc45)CC3)nc2C)cc1 [P-3061, 4-[4-[4-[5-(4-ethylphenyl)-4-methyl-1H-imidazol-2-yl]-1-piperidyl]-7H-pyrrolo[2,3-d]pyrimidin-6-yl]benzonitrile]",0.0001 to 1
12,"Cc1ccc(-c2[nH]c(C3CCN(c4ncnc5[nH]c(-c6ccc(F)cc6)cc45)CC3)nc2C)cc1 [P-3062, 6-(4-fluorophenyl)-4-[4-[4-methyl-5-(p-tolyl)-1H-imidazol-2-yl]-1-piperidyl]-7H-pyrrolo[2,3-d]pyrimidine]",0.0001 to 1
